Results: US12559474B2, “Triazine derivatives having virus replication inhibitory activity and pharmaceutical composition comprising the same” (priority 2021, dated 2026)
pEC50, pIC50: −log10 of the molar value. Like-named read-outs stand apart in the source and are kept apart here.

Columns and labels:
SARS-CoV-2 = assay: microbe, parasite or virus in culture; format: cell-based; conditions: 50% SARS-CoV-2 infected cell death inhibitory concentration, VeroE6/TMPRSS2 cells, 3 days culture
SARS-CoV-2 3CL protease = SARS-CoV-2 3CL protease (Severe acute respiratory syndrome coronavirus 2, UniProt P0DTD1); assay: biochemical; conditions: 50% SARS-CoV-2 3CL protease inhibitory concentration, read-out: IC50
[1] = Severe acute respiratory syndrome coronavirus 2, VeroE6/TMPRSS2, 72 h, class symbols
[2] = Severe acute respiratory syndrome coronavirus 2, VeroE6/TMPRSS2, 72 h, CellTiter-Glo 2.0

SMILES | pEC50 (SARS-CoV-2; [1]) | pIC50 (SARS-CoV-2 3CL protease; given as class symbols) | pEC50 (SARS-CoV-2; [2]) | pIC50 (SARS-CoV-2 3CL protease; RapidFire MS) | pEC50 (SARS-CoV-2; class symbols)
Cc1cncc(-n2c(=O)nc(Nc3cc4c(C#N)n(C)nc4cc3Cl)n(Cc3ccc(F)c(C#N)c3)c2=O)c1 [II-0368] | 5.00 to 6.00 | > 7.00 |  |  | 
O=c1[nH]cccc1Cn1c(=O)nc(N2CC3(CCC3)C2)n(Cc2cc(F)c(F)c(F)c2)c1=O [II-0226] |  |  | 5.56 | 6.89 | 
Cc1cc2nn(C)cc2cc1Nc1nc(=O)n(-c2cccc3cnccc23)c(=O)n1Cc1cc(F)c(F)c(F)c1 [Compound I-0369] | 5.00 to 6.00 | > 7.00 |  |  | 
Cc1cncc(-n2c(=O)nc(Nc3cc4cn(C)nc4cc3Cl)n(Cc3ccc(F)c(C#N)n3)c2=O)c1 [II-0539] | 5.00 to 6.00 | > 7.00 |  |  | 
CNc1nc2ccc(Nc3nc(=O)n(-c4cncc(Cl)c4)c(=O)n3Cc3cc(C#N)ccc3Cl)cc2s1 [II-0398] | > 6.00 | > 7.00 |  |  | 
Cc1cncc(-n2c(=O)nc(Nc3cc4cn(CC(F)F)nc4cc3Cl)n(Cc3cc(C#N)c(F)cn3)c2=O)c1 [II-0533] | 5.00 to 6.00 | > 7.00 |  |  | 
O=c1[nH]cccc1Cn1c(=O)nc(Nc2ccc3c(c2)CCCO3)n(Cc2cc(F)c(F)c(F)c2)c1=O [Compound I-0019] | 5.00 to 6.00 | > 7.00 |  |  | 
COc1ccc(Nc2nc(=O)n(Cc3ncn(C)n3)c(=O)n2Cc2cc(F)c(F)c(F)c2)cc1 [Compound I-0335] | 5.00 to 6.00 | 6.00 to 7.00 |  |  | 
Cc1cc(F)c(F)cc1Cn1c(Nc2cc3cn(C)nc3cc2Cl)nc(=O)n(Cc2ncn(C)n2)c1=O [II-0406] | > 6.00 | > 7.00 |  |  | 
COc1ccc(Nc2nc(=O)n(Cc3ncn(C)n3)c(=O)n2Cc2cc(F)c(F)c(F)c2)c(Cl)c1 [Compound I-0346] | > 6.00 | > 7.00 |  |  | 
CNc1nc2cc(Cl)c(Nc3nc(=O)n(Cc4ncn(C)n4)c(=O)n3Cc3cc(F)c(F)cc3F)cc2o1 [II-0517] | 5.00 to 6.00 | > 7.00 |  |  | 
Cc1cncc(-n2c(=O)nc(Nc3cc4cn(C)nc4cc3Cl)n(Cc3cc(C#N)ccc3F)c2=O)c1 [II-0301] | > 6.00 | > 7.00 |  |  | 
CNc1nc2cc(Cl)c(Nc3nc(=O)n(Cc4ncccn4)c(=O)n3Cc3cc(Cl)c(F)cc3F)cc2s1 [II-0239] | 5.00 to 6.00 | > 7.00 |  |  | 
Cc1cncc(-n2c(=O)nc(Nc3cc4c(cc3Cl)nc(N(C)C)n4C)n(Cc3cc(F)c(F)c(F)c3)c2=O)c1 [II-0478] | 5.00 to 6.00 | > 7.00 |  |  | 
Cc1cncc(-n2c(=O)nc(Nc3cc4c(cc3Cl)OC(C)C4)n(Cc3ccc(F)c(C#N)c3)c2=O)c1 (centres unmarked) [II-0121] |  | > 7.00 |  |  | > 6.00
CNc1nc2ccc(Nc3nc(=O)n(-c4cncc(C)c4)c(=O)n3Cc3cc(C#N)ccc3C)cc2s1 [II-0496] | > 6.00 | > 7.00 |  |  | 
CCn1cc2cc(Nc3nc(=O)n(-c4cncc(Cl)c4)c(=O)n3Cc3cc(C#N)ccc3Cl)ccc2n1 [II-0036] |  |  | 6.45 | 8.08 | 
Cc1cncc(-n2c(=O)nc(Nc3cc4cn(C)nc4cc3Cl)n(Cc3cc(C#N)c(F)cc3CF)c2=O)c1 [II-0581] | > 6.00 | > 7.00 |  |  | 
Cc1cncc(-n2c(=O)nc(Nc3cc4c(cc3Cl)nc(C(F)F)n4C)n(Cc3ccc(F)c(C#N)c3)c2=O)c1 [II-0106] | 5.00 to 6.00 | > 7.00 |  |  | 
Cc1cncc(-n2c(=O)nc(Nc3cc4cn(C)nc4cc3Cl)n(Cc3cc(F)c(F)c(C#N)c3)c2=O)c1 [II-0130] |  |  | 7.02 | 8.72 | 
Cc1cncc(-n2c(=O)nc(Nc3ccc4c(c3)CCO4)n(Cc3ccc(F)c(C#N)c3)c2=O)c1 [Compound I-0354] |  |  | 6.97 | 8.30 | 
Cc1cncc(-n2c(=O)nc(Nc3ccc4nc(C)sc4c3)n(Cc3ccc(F)c(C#N)c3)c2=O)c1 [II-0197] | > 6.00 | > 7.00 |  |  | 
Cc1cncc(-n2c(=O)nc(Nc3cc4c(cc3Cl)nc(C)n4C)n(Cc3ccc(F)c(C#N)c3)c2=O)c1 [II-0350] | 5.00 to 6.00 | > 7.00 |  |  | 
C/C=C/c1cc(F)c(F)cc1Cn1c(Nc2cc3cn(C)nc3cc2Cl)nc(=O)n(-c2cncc(C)c2)c1=O [II-0066] | 5.00 to 6.00 | > 7.00 |  |  | 
Cc1cncc(-n2c(=O)nc(Nc3cnc(OCC(F)F)cc3C)n(Cc3ccc(F)c(C#N)c3)c2=O)c1 [II-0123] | 5.00 to 6.00 | > 7.00 |  |  | 

SMILES | pEC50 (SARS-CoV-2; [1]) | pIC50 (SARS-CoV-2 3CL protease; given as class symbols) | pEC50 (SARS-CoV-2; [2]) | pIC50 (SARS-CoV-2 3CL protease; RapidFire MS) | pEC50 (SARS-CoV-2; class symbols)
O=c1[nH]cc(Cl)cc1Cn1c(=O)nc(Nc2cc3c(cc2Cl)OCC3)n(Cc2cc(F)c(F)c(F)c2)c1=O [Compound I-0391] |  |  | 6.34 | 8.12 | 
COc1cncc(-n2c(=O)nc(Nc3cc4cn(C)nc4cc3Cl)n(Cc3ccc(F)c(C#N)c3)c2=O)c1 [II-0578] | 5.00 to 6.00 | > 7.00 |  |  | 
C#Cc1cc(Cn2c(Nc3cc4cn(C)nc4cc3Cl)nc(=O)n(-c3cncc(C)c3)c2=O)ccc1F [II-0590] | > 6.00 | > 7.00 |  |  | 
CNC(=O)Cn1cc2cc(Nc3nc(=O)n(-c4cncc5ccccc45)c(=O)n3Cc3cc(F)c(F)cc3F)c(Cl)cc2n1 [II-0556] | 5.00 to 6.00 | > 7.00 |  |  | 
Cn1cc2cc(Nc3nc(=O)n(Cc4cc5ccsc5[nH]c4=O)c(=O)n3Cc3ccc(F)c(C#N)c3)c(Cl)cc2n1 [II-0008] | 5.00 to 6.00 | > 7.00 |  |  | 
Cn1cnc(Cn2c(=O)nc(Nc3cc4cn(C)nc4cc3Cl)n(Cc3cc(F)cc(Cl)c3)c2=O)n1 [II-0051] | 5.00 to 6.00 | > 7.00 |  |  | 
CNc1nc2ccc(Nc3nc(=O)n(-c4cncc(C)c4)c(=O)n3Cc3cc(C#N)ccc3Cl)cc2s1 [II-0497] | > 6.00 | > 7.00 |  |  | 
COCCCc1c2cc(Nc3nc(=O)n(Cc4ccc[nH]c4=O)c(=O)n3Cc3cc(F)c(F)c(F)c3)c(Cl)cc2nn1C [Compound I-0365] | 5.00 to 6.00 | > 7.00 |  |  | 
Cn1cc2cc(Nc3nc(=O)n(-c4cncc5c4COC5)c(=O)n3Cc3cc(F)c(F)c(F)c3)c(Cl)cc2n1 [II-0503] | 5.00 to 6.00 | > 7.00 |  |  | 
Cc1cncc(-n2c(=O)nc(Nc3cc4cn(CC(F)F)nc4cc3F)n(Cc3cc(F)c(F)cc3F)c2=O)c1 [II-0355] | > 6.00 | > 7.00 |  |  | 
COc1ccc(Nc2nc(=O)n(Cc3cc(-c4ncco4)c[nH]c3=O)c(=O)n2Cc2cc(F)c(F)c(F)c2)cc1 [Compound I-0260] | 5.00 to 6.00 | > 7.00 |  |  | 
COc1ccc(Nc2nc(=O)n(Cc3ccc[nH]c3=O)c(=O)n2Cc2ccc(F)c(Cl)c2)cc1 [Compound I-0252] | 5.00 to 6.00 | > 7.00 |  |  | 
Cc1cncc(-n2c(=O)nc(Nc3cc4cn(C5CCOCC5)nc4cc3Cl)n(Cc3ccc(F)c(C#N)c3)c2=O)c1 [II-0096] | > 6.00 | > 7.00 |  |  | 
Cn1cnc(Cn2c(=O)nc(Nc3cc4cn(C)nc4cc3Cl)n(Cc3cc(Cl)c(F)c(Cl)c3)c2=O)n1 [II-0584] |  |  | 6.12 | 8.32 | 
O=c1[nH]cccc1Cn1c(=O)nc(Nc2cc3cccnc3cc2Cl)n(Cc2cc(F)c(F)c(F)c2)c1=O [Compound I-0279] | 5.00 to 6.00 | > 7.00 |  |  | 
CNc1nc2ccc(Nc3nc(=O)n(-c4cncc(C)c4)c(=O)n3Cc3cc(C#N)c(F)cc3Cl)cc2s1 [II-0421] | > 6.00 | > 7.00 |  |  | 
CNc1nc2ccc(Nc3nc(=O)n(-c4cncc(Cl)c4)c(=O)n3Cc3cc(C#N)c(F)cc3C)cc2s1 [II-0396] | > 6.00 | > 7.00 |  |  | 
Cc1cncc(-n2c(=O)nc(Nc3cc4sc(NCC(F)(F)F)nc4cc3Cl)n(Cc3ccc(F)c(C#N)c3)c2=O)c1 [II-0526] | 5.00 to 6.00 | > 7.00 |  |  | 
O=c1[nH]cc(Cl)cc1Cn1c(=O)nc(Nc2cc3cn(CCO)nc3cc2Cl)n(Cc2cc(F)c(F)c(F)c2)c1=O [Compound I-0079] | 5.00 to 6.00 | > 7.00 |  |  | 
O=c1[nH]cccc1Cn1c(=O)nc(Nc2cc3cn(CC(F)(F)F)nc3cc2Cl)n(Cc2cc(F)c(F)c(F)c2)c1=O [II-0505] | 5.00 to 6.00 | > 7.00 |  |  | 
Cc1cncc(-n2c(=O)nc(Nc3cc4cn(C5CC5)nc4cc3Cl)n(Cc3ccc(F)c(C#N)c3)c2=O)c1 [II-0366] | > 6.00 | > 7.00 |  |  | 
Cn1cnc(Cn2c(=O)nc(Nc3cc4cn(C)nc4cc3Cl)n(Cc3cccc(F)c3F)c2=O)n1 [II-0217] | 5.00 to 6.00 | > 7.00 |  |  | 
CCn1cc2cc(Nc3nc(=O)n(-c4cncc(Cl)c4)c(=O)n3Cc3cc(C#N)c(F)cc3C)ccc2n1 [II-0559] |  |  | 6.61 | 8.19 | 
Cc1cncc(-n2c(=O)nc(Nc3cc4cn(C(C)C)nc4cc3Cl)n(Cc3ccc(F)c(C#N)c3)c2=O)c1 [II-0544] | > 6.00 | > 7.00 |  |  | 
